Assay results: article PMC9138102, “The Role of ZIP9 and Androgen Receptor in the Establishment of Tight Junctions between Adult Rat Sertoli Cells” (Biology, 2022)

Key:
AR = AR nuclear translocation in PASC1 cells (immunofluorescence); type: cell-based, rat; details: 2 h
Experimental: PASC1 cells were plated at a density of 3.0 × 10^4 on 24-well plates (1 mL/well) and incubated 48 h at 37 °C and 5% CO2 until a confluence of roughly 80% was reached. Cells were rinsed with DPBS and fixed with 100% ice-cold methanol (Roth, Karlsruhe, Germany) on ice for 10 min directly or after stimulation with vehicle, 10 nM testosterone, or 1 µM P1 for 24 h. Cells were then washed with DPBS three times for 5 min, and then incubated in blocking solution (PBS with 3% BSA and 0.3% Triton X-100, both from Sigma-Aldrich) for 1 h at room temperature. The blocking solution was replaced by fresh blocking solution containing the primary antibodies for detection of either AR, p-Erk1/2, p-CREB/p-ATF-1, claudin-1 (Cldn-1), or zonula occludens-1 (ZO-1) (Supplementary Table S1) and incubated overnight at 4 °C. […] After washing 3 times with DPBS, images were obtained using an inverse Olympus IX81 microscope equipped with a fluorescence system. A total of 30 cells from 3 independent experiments (30 × 3) localized closest to the diagonals of the square optical field were selected and the manually surrounded green fluorescence was quantified by ImageJ (available at http://rsbweb.nih.gov/ij/, last accessed 28 February 2022) following the protocol of the software provider.

Erk1/2 [1] = test: Erk1/2 phosphorylation in PASC1 cells, Western blot; type: cell-based, rat
Experimental: A total of 3 × 10^4 PASC1 cells/dish were grown in 5 cm culture dishes as described above. Cells were then incubated for 24 h with 1% FCS before testosterone or P1 were added to the medium to reach the desired final concentration. The ethanol vehicle for testosterone was added to the peptide-treated cells and untreated controls at the same concentration as in cell cultures treated with testosterone. After 24 h, the medium was aspired and the cells were washed twice in ice-cold DPBS. Cells were then incubated with 400 µL lysis buffer (Cell Signaling Technologies, Frankfurt, Germany) containing 1 µM PMSF, 1× protease inhibitor cocktail (Roche, Mannheim, Germany), and 2 µg/mL pepstatin that was added immediately before use. All further steps were carried out on ice. After 5 min of incubation, cells were detached using a cell scraper. The suspensions were then transferred into 1.5 mL vials and sonicated 5 times for 1 s each with intervals of 1 s. After centrifugation of the lysates at 4 °C and 13,000× g for 10 min, the protein concentration in the supernatants was determined at 540 nm using a bicinchoninic acid protein assay reagent kit (Pierce, Southfield, MI, USA) and a Labsystems (Helsinki, Finland) plate reader. The BSA protein standard contained lysis buffer at the same concentration as in the samples from the cell lysates. Supernatants were then aliquoted and maintained at −20 °C until further use.
A total of 10 µg protein from PASC1 cell lysates was run on SDS-PAGE gels containing 10% acrylamide and 0.3% N,N′-methylene-bis-acrylamide. Biotinylated proteins (Cell Signaling Technologies) were run in parallel as molecular weight markers. After electrophoresis, proteins were semi-dry electro-blotted onto PVDF membranes (Merck Chemicals GmbH, Schwalbach, Germany) for 30 min at […]. The membranes were then incubated for 1 h at room temperature in 5% (w/w) non-fat dry milk. Primary antibodies against phospho-Erk1/2, total-Erk1/2, or beta-actin were diluted according to the recommendations of the manufacturers and then incubated with the PVDF membranes overnight at 4 °C (see Supplementary Table S1 for all antibodies with dilutions and manufacturers). After washing in DPBS, the membranes were incubated under continuous mild agitation on an orbital shaker for 60 min at room temperature with a horseradish peroxidase-conjugated secondary antibody. An anti-biotin, HRP-conjugated antibody at a dilution of 1:2000 was also included in the mixture containing the secondary antibody in order to detect the biotinylated molecular weight marker. Antibody-labeled protein bands were visualized by enhanced chemiluminescence.
Figure 5 Western blot analysis of phospho-Erk1/2. PASC1 cells were stimulated for 24 h with various concentrations of testosterone or IAPG. (A) Phospho-Erk1/2 detection after stimulation with testosterone and (B) after stimulation with IAPG. […] For each diagram: n = 3; means ± SEM. Original Western blots are shown in Supplementary Figure S1.

Erk1/2 [2] = test: phospho-Erk1/2 immunofluorescence in PASC1 cells after AR or ZIP9 silencing; type: cell-based, rat; details: 10 nM testosterone or 10 µM IAPG, 24 h
Experimental: PASC1 cells were plated at a density of 3.0 × 10^4 on 24-well plates (1 mL/well) and incubated 48 h at 37 °C and 5% CO2 until a confluence of roughly 80% was reached. Cells were rinsed with DPBS and fixed with 100% ice-cold methanol (Roth, Karlsruhe, Germany) on ice for 10 min directly or after stimulation with vehicle, 10 nM testosterone, or 1 µM P1 for 24 h. Cells were then washed with DPBS three times for 5 min, and then incubated in blocking solution (PBS with 3% BSA and 0.3% Triton X-100, both from Sigma-Aldrich) for 1 h at room temperature. The blocking solution was replaced by fresh blocking solution containing the primary antibodies for detection of either AR, p-Erk1/2, p-CREB/p-ATF-1, claudin-1 (Cldn-1), or zonula occludens-1 (ZO-1) (Supplementary Table S1) and incubated overnight at 4 °C. Cells were washed 3 times with DPBS for 3 min each at RT on an orbital shaker, freshly made blocking solution with the appropriate Alexafluor 488-conjugated donkey anti-rabbit secondary antibody was added for 1 h at room temperature on an orbital shaker. After washing 3 times with DPBS, images were obtained using an inverse Olympus IX81 microscope equipped with a fluorescence system. […] The data obtained were analyzed by GraphPad Prism5 (GraphPad Software, Inc., La Jolla, CA, USA).
(§1) For silencing ZIP9 or AR expression, PASC1 cells were treated with commercially available siRNA directed against the expression of ZIP9 or the AR by following the manufacturer’s protocol (Silencer ® Select, siRNA Invitrogen, Darmstadt, Germany). The following oligonucleotides were used: 5′ […]tt3′ and 5′ […]ta 3′ (ZIP9-siRNA for ZIP9 silencing) and 5′[…]tt3′ plus 5′ […]ag 3′ (AR-siRNA for AR silencing). Negative control siRNA (nc-siRNA) was provided in the siRNA kit from the same manufacturer. After incubation of PASC1 for 48 h with ZIP9-siRNA, AR-siRNA, or nc-siRNA, preparation of samples for qRT-PCR, TER measurement, or immunofluorescence experiments were carried out as described above.

JAM-3-specific mRNA = test: JAM-3 mRNA expression in PASC1 cells, qRT-PCR; type: cell-based, rat; details: 10 nM testosterone or 10 µM IAPG, 24 h, n = 3 × 2
Experimental: Primers were designed with http://www.ncbi.nlm.nih.gov/tools/primer-blast (Accessed on 28 February 2022) and were all intron-spanning. Total RNA was isolated from PASC1 with the RNeasy Mini-Kit (Qiagen, Hilden, Germany) and subjected to DNase I treatment as described by the manufacturer. The Reverse Transcription-System first strand cDNA synthesis kit (Invitrogen, Darmstadt, Germany) was used for cDNA synthesis, as recommended. Quantitative real-time PCR (qRT-PCR) amplification was performed in duplicate with iQ TM SYBR Green Super-mix (Bio-Rad; Munich; Germany) on the iCycler iQ System (Bio-Rad). After an initial heating at 94 °C for 5 min, 40 amplification cycles were performed consisting of an initial denaturation of the DNA double strands at 94 °C for 14 s, an annealing phase of the primers at 59 °C for 30 s, and extension of the primers for 15 s at 72 °C. A finalizing extension at 72 °C was carried out for 10 min. Gene expression was measured after reaching the ct value and calculated using the Delta–Delta Ct method. Detection of GAPDH-specific mRNA/cDNA served as normalization of the quantification. Oligonucleotides used in the qRT-PCR, their annealing position, and the expected size of the amplificates are listed in Supplementary Table S2.
as §1

[3] = exogenous testosterone; cited from earlier work

| Molecule | AR localization / translocation into the nucleus (AR; IAPG 10 µM) | Total expression of Erk1/2 or beta-actin (Erk1/2 [1]) | Concentration needed for maximum stimulation of Erk1/2 phosphorylation (Erk1/2 [1]; IAPG) [µM] | Stimulatory effect on Erk1/2 phosphorylation, nc-siRNA versus AR-siRNA (Erk1/2 [2]) | Erk1/2 phosphorylation (green fluorescence) (Erk1/2 [2]; AR-siRNA, ** p ≤ 0.01) | Erk1/2 phosphorylation (green fluorescence) (Erk1/2 [2]; ZIP9-siRNA, ns) | Erk1/2 phosphorylation (green fluorescence) (Erk1/2 [2]; nc-siRNA, ** p ≤ 0.01) | JAM-3 mRNA expression (JAM-3-specific mRNA; AR-siRNA) | JAM-3 mRNA expression (JAM-3-specific mRNA; ZIP9-siRNA) | JAM-3 mRNA expression (JAM-3-specific mRNA; nc-siRNA) | AR localization / translocation into the nucleus (AR; testosterone 10 nM) | EC50 (Erk1/2 [1]; Rattus norvegicus, 24 h per legend, within 30 min per text, 10^-10 to 10^-7 M, n = 3, means ± SEM) [nM] | Concentration needed for maximum stimulation of Erk1/2 phosphorylation (Erk1/2 [1]; testosterone) [µM] | Effect on hypothalamic–pituitary–gonadal axis hormones [3] | Effect on male fertility [3] | Germ cell production [3] | Severe side effects [3] |
| --- | --- | --- | --- | --- | --- | --- | --- | --- | --- | --- | --- | --- | --- | --- | --- | --- | --- |
| IAPG | A translocation of the AR from the cytosol into the nucleus did not occur | did not affect total expression of Erk1/2 or beta-actin | 10 | not significantly different from each other | responded with augmented phosphorylation of Erk1/2 | entirely prevented stimulation of Erk1/2 phosphorylation | low (Figure 6A) relative to the signal obtained in cells exposed to testosterone (Figure 6B) or IAPG | upregulated | remained at basal levels | upregulated |  |  |  |  |  |  |  |
| C[C@]12CC[C@H]3[C@@H](CCC4=CC(=O)CC[C@@]43C)[C@@H]1CC[C@@H]2O [testosterone] |  | did not affect total expression of Erk1/2 or beta-actin |  | not significantly different from each other | responded with augmented phosphorylation of Erk1/2 | entirely prevented stimulation of Erk1/2 phosphorylation | low (Figure 6A) relative to the signal obtained in cells exposed to testosterone | upregulated | remained at basal levels | upregulated | all green fluorescence was found within the nuclei | 0.35 | 0.01 | prevents GnRH release from the hypothalamus and FSH and LH from the pituitary, leading to the impairment of testosterone production in Leydig cells | unfavorably affects male fertility | germ cell production under these conditions is halted | polycythemia, cardiac hypertrophy, and myocardial infarction |
